IC50, EC50 and AC50 data for one molecule are collected here from ChEMBL document CHEMBL1201862, “PubChem BioAssay data set” (2004).

In assay [1] the target is T1, Bcl-2-related protein A1 (Mus musculus, UniProt Q07440).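 Further: confirmatory dose–response counterscreen on Bfl-1, used to check hits from a UBC13 polyubiquitin inhibitor campaign.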
T1 sequence (Q07440 whole entry): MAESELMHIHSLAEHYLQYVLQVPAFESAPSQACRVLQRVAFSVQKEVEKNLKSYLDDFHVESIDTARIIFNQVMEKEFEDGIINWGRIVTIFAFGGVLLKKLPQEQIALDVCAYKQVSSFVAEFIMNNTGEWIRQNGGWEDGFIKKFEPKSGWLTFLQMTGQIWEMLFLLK
Format: functional.

For assay [2], the target named is T2, Ubiquitin-conjugating enzyme E2 N (Homo sapiens, UniProt P61088).
T2 sequence (P61088 whole entry): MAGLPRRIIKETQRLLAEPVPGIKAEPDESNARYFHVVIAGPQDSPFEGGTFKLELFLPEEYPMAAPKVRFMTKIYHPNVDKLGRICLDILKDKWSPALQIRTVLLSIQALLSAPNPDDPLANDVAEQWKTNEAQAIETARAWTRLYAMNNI
Format: functional.

The target in assay [3] is T2, Ubiquitin-conjugating enzyme E2 N. Format: functional. The source holds these as a separate data set.
Assay [4] concerns the target T3, Apoptotic protease-activating factor 1 (Homo sapiens, UniProt O14727).
T3 sequence (O14727 whole entry): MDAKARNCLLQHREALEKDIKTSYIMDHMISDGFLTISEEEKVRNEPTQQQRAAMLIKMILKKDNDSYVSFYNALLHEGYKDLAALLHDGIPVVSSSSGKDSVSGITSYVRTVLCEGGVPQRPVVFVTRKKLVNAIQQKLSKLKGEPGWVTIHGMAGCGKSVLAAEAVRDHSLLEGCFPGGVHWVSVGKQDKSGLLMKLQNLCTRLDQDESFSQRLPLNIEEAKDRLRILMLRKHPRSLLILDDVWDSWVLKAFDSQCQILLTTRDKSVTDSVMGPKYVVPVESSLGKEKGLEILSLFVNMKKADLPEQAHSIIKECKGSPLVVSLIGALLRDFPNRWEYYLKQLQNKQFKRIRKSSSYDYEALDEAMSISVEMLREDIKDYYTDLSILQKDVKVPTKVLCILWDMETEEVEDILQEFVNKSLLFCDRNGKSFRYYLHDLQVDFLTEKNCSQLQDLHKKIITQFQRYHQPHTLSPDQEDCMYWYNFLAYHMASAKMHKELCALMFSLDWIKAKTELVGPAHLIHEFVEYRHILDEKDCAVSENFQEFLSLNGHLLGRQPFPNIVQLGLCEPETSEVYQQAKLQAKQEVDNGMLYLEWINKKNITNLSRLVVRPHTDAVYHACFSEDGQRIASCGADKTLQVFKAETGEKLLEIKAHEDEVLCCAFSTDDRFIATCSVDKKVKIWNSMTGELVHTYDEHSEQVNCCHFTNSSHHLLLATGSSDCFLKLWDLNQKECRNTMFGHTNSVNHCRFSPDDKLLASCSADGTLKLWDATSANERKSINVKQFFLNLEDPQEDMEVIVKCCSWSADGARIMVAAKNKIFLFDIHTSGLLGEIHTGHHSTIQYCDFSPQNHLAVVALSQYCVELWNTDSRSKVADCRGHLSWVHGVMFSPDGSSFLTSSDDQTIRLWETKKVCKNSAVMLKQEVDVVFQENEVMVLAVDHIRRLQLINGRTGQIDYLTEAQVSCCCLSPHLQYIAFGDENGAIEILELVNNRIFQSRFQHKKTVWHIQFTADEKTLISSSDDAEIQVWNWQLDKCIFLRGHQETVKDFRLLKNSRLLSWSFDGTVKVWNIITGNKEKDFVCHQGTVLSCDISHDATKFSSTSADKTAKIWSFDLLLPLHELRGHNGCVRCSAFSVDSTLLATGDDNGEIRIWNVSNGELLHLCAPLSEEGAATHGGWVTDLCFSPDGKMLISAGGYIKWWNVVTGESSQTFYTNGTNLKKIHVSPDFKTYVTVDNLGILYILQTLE
Format: functional.

In assay [5] the test system is Vero. Description: cells. Format: functional, cell-based. As to conditions: Chlorocebus sabaeus.
Assay [6] addresses Beta-2 adrenergic receptor (Homo sapiens, UniProt P07550). Description: beta2AR agonists driving receptor internalization, dose response, cell-based, FAP fluorogen, flow cytometry, cherry pick 1 (AID 588763). Format: functional. For orientation: A flow cytometer gives signals particle by particle.
In assay [7] the target is T4, DNA repair and recombination protein RAD54-like (Homo sapiens, UniProt Q92698).
T4 sequence (Q92698 whole entry): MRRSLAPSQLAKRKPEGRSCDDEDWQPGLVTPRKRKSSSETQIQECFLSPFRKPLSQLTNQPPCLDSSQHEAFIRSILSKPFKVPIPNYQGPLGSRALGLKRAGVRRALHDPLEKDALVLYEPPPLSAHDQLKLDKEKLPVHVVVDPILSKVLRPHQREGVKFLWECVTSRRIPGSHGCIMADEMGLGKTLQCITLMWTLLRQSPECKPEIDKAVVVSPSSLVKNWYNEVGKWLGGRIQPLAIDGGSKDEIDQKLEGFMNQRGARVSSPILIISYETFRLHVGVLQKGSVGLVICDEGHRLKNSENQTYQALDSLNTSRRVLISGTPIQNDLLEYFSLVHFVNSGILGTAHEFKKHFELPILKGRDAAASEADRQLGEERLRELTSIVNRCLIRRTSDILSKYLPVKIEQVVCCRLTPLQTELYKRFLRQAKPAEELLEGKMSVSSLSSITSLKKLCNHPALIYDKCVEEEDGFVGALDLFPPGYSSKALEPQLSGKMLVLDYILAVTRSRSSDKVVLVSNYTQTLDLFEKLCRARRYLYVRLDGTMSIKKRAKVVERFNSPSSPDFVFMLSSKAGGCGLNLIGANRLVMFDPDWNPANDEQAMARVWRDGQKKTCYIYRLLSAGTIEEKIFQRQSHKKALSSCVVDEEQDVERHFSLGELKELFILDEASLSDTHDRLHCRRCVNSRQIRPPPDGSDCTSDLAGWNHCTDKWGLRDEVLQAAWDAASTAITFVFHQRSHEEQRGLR
Description: inhibitors of human RAD54 branch migration, confirmation, biochemical, fluorescence, cherry-picked samples, dose series (AID 651657). Format: functional.

The target of assay [8] is T5, Rac GTPase-activating protein 1 (Homo sapiens, UniProt Q9H0H5).
T5 sequence (Q9H0H5 whole entry): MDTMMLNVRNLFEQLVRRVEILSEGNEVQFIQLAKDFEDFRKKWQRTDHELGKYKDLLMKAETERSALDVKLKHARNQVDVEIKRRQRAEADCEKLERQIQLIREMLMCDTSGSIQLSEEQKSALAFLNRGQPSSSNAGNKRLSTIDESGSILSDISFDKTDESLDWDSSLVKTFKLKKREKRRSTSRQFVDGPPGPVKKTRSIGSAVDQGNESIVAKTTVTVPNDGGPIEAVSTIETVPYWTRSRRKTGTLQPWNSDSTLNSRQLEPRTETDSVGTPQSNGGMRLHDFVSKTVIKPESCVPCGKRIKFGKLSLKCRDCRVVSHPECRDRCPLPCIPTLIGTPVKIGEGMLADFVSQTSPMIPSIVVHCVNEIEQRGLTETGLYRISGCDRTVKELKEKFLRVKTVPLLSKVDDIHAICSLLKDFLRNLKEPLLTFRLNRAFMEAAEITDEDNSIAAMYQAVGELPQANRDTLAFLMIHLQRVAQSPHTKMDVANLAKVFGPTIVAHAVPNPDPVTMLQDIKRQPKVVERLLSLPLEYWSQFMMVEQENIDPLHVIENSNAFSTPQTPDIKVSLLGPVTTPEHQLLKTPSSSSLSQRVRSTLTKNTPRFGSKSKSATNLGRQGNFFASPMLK
In words: MgcRacGAP GTPase-activating activity inhibitors, confirmation, biochemical, ADP Hunter fluorescence, primary and confirmatory (AID 624330). Format: functional.

SMILES strings stand for the structures. The source made the active and inactive calls.

A word on the IC50: it is the point on the concentration scale where inhibition reaches its midpoint. One may read the EC50 as the midpoint of the concentration-response curve. The term AC50 denotes the midpoint of the concentration-response curve, whichever way the signal moves.

Chain of Beta-2 adrenergic receptor (P07550 whole entry): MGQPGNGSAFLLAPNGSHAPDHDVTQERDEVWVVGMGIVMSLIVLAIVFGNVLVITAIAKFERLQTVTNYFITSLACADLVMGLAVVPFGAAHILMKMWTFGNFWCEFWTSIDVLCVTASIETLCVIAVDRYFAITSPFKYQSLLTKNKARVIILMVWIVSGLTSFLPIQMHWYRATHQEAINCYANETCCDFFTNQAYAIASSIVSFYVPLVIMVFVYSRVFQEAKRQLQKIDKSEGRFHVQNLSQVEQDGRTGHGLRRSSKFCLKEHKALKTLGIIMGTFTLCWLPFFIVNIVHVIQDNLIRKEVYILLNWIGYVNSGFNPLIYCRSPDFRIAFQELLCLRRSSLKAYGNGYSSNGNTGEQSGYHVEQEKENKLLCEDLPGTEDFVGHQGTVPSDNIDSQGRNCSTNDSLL

Consider `COc1cc2nc(N3CCNCC3)nc(N)c2cc1OC`, for which the IC50 is 11.1 µM (active) in assay [1]; 1.5 µM (active) in assay [2]; 0.873 µM (active) in assay [3]; 31.5 µM (active) in assay [4]; 22.4 µM (active) in assay [5]; 63.1 µM (active) in assay [8]. The EC50 in assay [6] is 8.61 µM (inactive). Also, in assay [7], the AC50 was 1.49 µM (active).
